Results published in patent US20250313572A1, “MACROCYCLIC MCL-1 INHIBITORS AND METHODS OF USE” (AbbVie Inc., priority 2017, published 2025).
Read-outs that look alike come from different tables or passages of the source.

Experiments:
[1] = tested on: NCI-H929 human multiple myeloma tumor cell line; assay: NCI-H929 cell viability assay (CellTiter-Glo, 24 hours); format: cell-based; settings: Homo sapiens, NCI-H929, 24 h, read-out: H929 Viability IC50 (μM, 10% FBS), 10% FBS, 24 hours of compound treatment
[2] = tested on: AMO-1 human multiple myeloma tumor cell line; assay: AMO-1 cell viability assay (CellTiter-Glo, 24 hours); format: cell-based; settings: Homo sapiens, AMO1, 24 h, read-out: AMO-1 Viability IC50 (μM, 10% FBS), 10% FBS, 24 hours of compound treatment
GST-MCL-1 = GST-MCL-1 (Homo sapiens, UniProt Q07820); assay: TR-FRET MCL-1 binding assay (competition with probe F-Bak)
Experimental: Tb-anti-GST antibody was purchased from Invitrogen (Catalog No. PV4216).
For the assay, an acoustic dispenser was used to prepare dilution series from 10 mM test compounds in 100% DMSO and directly transfer 160 nL into low volume 384-well assay plates. 8 μL of a protein/probe/antibody mix was then added to each well resulting in final concentrations listed below: • Test compound: 11 three-fold dilutions beginning at 25 μM
The samples were then mixed on a shaker for 1 minute and incubated for an additional 2 hours at room temperature. For each assay plate, a probe/antibody and protein/antibody/probe mixture were included as a negative and a positive control, respectively. Fluorescence was measured on the Envision (Perkin Elmer) using a 340/35 nm excitation filter and 520/525 (F-Bak) and 495/510 nm (Tb-labeled anti-his antibody) emission filters. […] The TR-FRET assay can be performed in the presence of varying concentrations of human serum (HS) or fetal bovine serum (FBS). Compounds were tested both without HS and in the presence of 10% HS.

[3] = MCL-1 Binding Ki (nM, 10% HS), in the presence of 10% HS (human serum)
[4] = without HS, read-out: MCL-1 Binding Ki

GST-MCL-1, sequence (Q07820 whole entry): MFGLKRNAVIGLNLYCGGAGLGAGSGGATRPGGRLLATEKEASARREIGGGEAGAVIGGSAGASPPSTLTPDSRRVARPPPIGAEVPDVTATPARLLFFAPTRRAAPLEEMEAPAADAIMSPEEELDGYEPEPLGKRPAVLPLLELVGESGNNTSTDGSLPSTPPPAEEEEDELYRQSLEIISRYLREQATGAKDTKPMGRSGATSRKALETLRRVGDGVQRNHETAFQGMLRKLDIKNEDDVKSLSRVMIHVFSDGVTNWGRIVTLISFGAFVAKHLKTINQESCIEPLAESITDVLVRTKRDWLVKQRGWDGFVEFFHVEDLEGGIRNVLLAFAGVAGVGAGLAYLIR

Compound	IC50 [1] [µM]	IC50 [2] [µM]	Ki (GST-MCL-1; [3]) [nM]	Ki (GST-MCL-1; [4]) [nM]
Cc1c(Cl)c2c(Cl)c(C)c1-c1c(-c3ccc(F)cc3)sc3ncnc(c13)O[C@@H](C(=O)O)Cc1cc(ccc1OCc1ccnc(-c3ccc(S(C)(=N)=O)cc3)n1)OC[C@@H](CN1CCN(C)CC1)O2 (stereo partly drawn) [Example 30, (7R,16R)-19,23-dichloro-1-(4-fluorophenyl)-10-({2-[4-(S-methanesulfonimidoyl)phenyl]pyrimidin-4-yl}methoxy)-20,22-dimethyl-16-[(4-methylpiperazin-1-yl)methyl]-7,8,15,16-tetrahydro-18,21-etheno-13,9-(metheno)-6,14,17-trioxa-2-thia-3,5-diazacyclononadeca[1,2,3-cd]indene-7-carboxylic Acid]	0.00356	0.00277	0.252	0.033
COCCOCCOCCOCC1CN(c2nccc(COc3ccc4cc3C[C@H](C(=O)O)Oc3ncnc5sc(-c6ccc(F)cc6)c(c35)-c3c(C)c(Cl)c(c(Cl)c3C)O[C@H](CN3CCN(C)CC3)CO4)n2)C1 [Example 94, (7R,16R)-19,23-dichloro-1-(4-fluorophenyl)-20,22-dimethyl-16-[(4-methylpiperazin-1-yl)methyl]-10-({2-[3-(2,5,8,11-tetraoxadodecan-1-yl)azetidin-1-yl]pyrimidin-4-yl}methoxy)-7,8,15,16-tetrahydro-18,21-etheno-9,13-(metheno)-6,14,17-trioxa-2-thia-3,5-diazacyclononadeca[1,2,3-cd]indene-7-carboxylic Acid]	0.00184	0.00203	1.08	0.181
COCCOCCOCCOCCOCCOCC1(c2nccc(COc3ccc4cc3C[C@H](C(=O)O)Oc3ncnc5sc(-c6ccc(F)cc6)c(c35)-c3c(C)c(Cl)c(c(Cl)c3C)O[C@H](CN3CCN(C)CC3)CO4)n2)CCCC1 [Example 76, (7R,16R)-19,23-dichloro-1-(4-fluorophenyl)-10-({2-[1-(2,5,8,11,14,17-hexaoxaoctadecan-1-yl)cyclopentyl]pyrimidin-4-yl}methoxy)-20,22-dimethyl-16-[(4-methylpiperazin-1-yl)methyl]-7,8,15,16-tetrahydro-18,21-etheno-13,9-(metheno)-6,14,17-trioxa-2-thia-3,5-diazacyclononadeca[1,2,3-cd]indene-7-carboxylic Acid]	0.000648	0.000409	0.634	0.16
Cc1c(Cl)c2c(Cl)c(C)c1-c1c(-c3ccc(F)cc3)sc3ncnc(c13)O[C@@H](C(=O)O)Cc1cc(ccc1OCc1ccnc(C3(COCCOC[C@H]4COCCO4)CCC3)n1)OC[C@@H](CN1CCN(C)CC1)O2 [Example 77, (7R,16R)-19,23-dichloro-10-[(2-{1-[(2-{[(2R)-1,4-dioxan-2-yl]methoxy}ethoxy)methyl]cyclobutyl}pyrimidin-4-yl)methoxy]-1-(4-fluorophenyl)-20,22-dimethyl-16-[(4-methylpiperazin-1-yl)methyl]-7,8,15,16-tetrahydro-18,21-etheno-13,9-(metheno)-6,14,17-trioxa-2-thia-3,5-diazacyclononadeca[1,2,3-cd]indene-7-carboxylic Acid]	0.000405	0.000193	0.325	0.089
COCC(COC)Oc1nccc(COc2ccc3cc2C[C@H](C(=O)O)Oc2ncnc4sc(-c5ccc(F)cc5)c(c24)-c2c(C)c(Cl)c(c(Cl)c2C)O[C@H](CN2CCN(C)CC2)CO3)n1 [Example 141, (7R,16R)-19,23-dichloro-10-({2-[(1,3-dimethoxypropan-2-yl)oxy]pyrimidin-4-yl}methoxy)-1-(4-fluorophenyl)-20,22-dimethyl-16-[(4-methylpiperazin-1-yl)methyl]-7,8,15,16-tetrahydro-18,21-etheno-9,13-(metheno)-6,14,17-trioxa-2-thia-3,5-diazacyclononadeca[1,2,3-cd]indene-7-carboxylic Acid]	0.000503	0.000441	0.363	0.008
Cc1c(Cl)c2c(Cl)c(C)c1-c1c(-c3ccc(F)cc3)sc3ncnc(c13)O[C@@H](C(=O)O)Cc1cc(ccc1OCc1ccnc(-c3ccccc3OC[C@H](O)CO)n1)OC[C@@H](CN1CCN(C)CC1)O2 [Example 23, (7R,16R)-19,23-dichloro-10-[(2-{2-[(2R)-2,3-dihydroxypropoxy]phenyl}pyrimidin-4-yl)methoxy]-1-(4-fluorophenyl)-20,22-dimethyl-16-[(4-methylpiperazin-1-yl)methyl]-7,8,15,16-tetrahydro-18,21-etheno-13,9-(metheno)-6,14,17-trioxa-2-thia-3,5-diazacyclononadeca[1,2,3-cd]indene-7-carboxylic Acid]	0.00389	0.00222	0.238	0.018
Cc1c(Cl)c2c(Cl)c(C)c1-c1c(-c3ccc(F)cc3)sc3ncnc(c13)O[C@@H](C(=O)O)Cc1cc(ccc1OCc1ccnc([C@@H]3CN4CCC[C@H]4CO3)n1)OC[C@@H](CN1CCN(C)CC1)O2 [Example 150, (7R,16R)-19,23-dichloro-1-(4-fluorophenyl)-10-({2-[(3S,8aS)-hexahydro-1H-pyrrolo[2,1-c][1,4]oxazin-3-yl]pyrimidin-4-yl}methoxy)-20,22-dimethyl-16-[(4-methylpiperazin-1-yl)methyl]-7,8,15,16-tetrahydro-18,21-etheno-13,9-(metheno)-6,14,17-trioxa-2-thia-3,5-diazacyclononadeca[1,2,3-cd]indene-7-carboxylic Acid]	0.00253	0.00151	0.267	0.043
COCCOCCOCCOCCOCCOCC1(F)CC=C(c2nccc(COc3ccc4cc3C[C@H](C(=O)O)Oc3ncnc5sc(-c6ccc(F)cc6)c(c35)-c3c(C)c(Cl)c(c(Cl)c3C)O[C@H](CN3CCN(C)CC3)CO4)n2)CC1 (single isomer, unassigned) [Example 97, (7R,16R)-19,23-dichloro-10-({2-[(4S*)-4-fluoro-4-(2,5,8,11,14,17-hexaoxaoctadecan-1-yl)cyclohex-1-en-1-yl]pyrimidin-4-yl}methoxy)-1-(4-fluorophenyl)-20,22-dimethyl-16-[(4-methylpiperazin-1-yl)methyl]-7,8,15,16-tetrahydro-18,21-etheno-13,9-(metheno)-6,14,17-trioxa-2-thia-3,5-diazacyclononadeca[1,2,3-cd]indene-7-carboxylic Acid]	0.000482	0.0006	0.137	0.016
COCCOCCOCCO[C@H]1CC[C@H](c2nccc(COc3ccc4cc3C[C@H](C(=O)O)Oc3ncnc5sc(-c6ccc(F)cc6)c(c35)-c3c(C)c(Cl)c(c(Cl)c3C)O[C@H](CN3CCN(C)CC3)CO4)n2)CC1 [Example 57, (7R,16R)-19,23-dichloro-1-(4-fluorophenyl)-10-({2-[(1r,4r)-4-{2-[2-(2-methoxyethoxy)ethoxy]ethoxy}cyclohexyl]pyrimidin-4-yl}methoxy)-20,22-dimethyl-16-[(4-methylpiperazin-1-yl)methyl]-7,8,15,16-tetrahydro-18,21-etheno-13,9-(metheno)-6,14,17-trioxa-2-thia-3,5-diazacyclononadeca[1,2,3-cd]indene-7-carboxylic Acid]	0.00037	0.000244	0.072	0.013
Cc1c(Cl)c2c(Cl)c(C)c1-c1c(-c3ccc(F)cc3)sc3ncnc(c13)O[C@@H](C(=O)O)Cc1cc(ccc1OCc1ccnc(-c3ccc(OC[C@H](O)CO)cc3)n1)OC[C@@H](CN1CCN(C)CC1)O2 [Example 22, (7R,16R)-19,23-dichloro-10-[(2-{4-[(2R)-2,3-dihydroxypropoxy]phenyl}pyrimidin-4-yl)methoxy]-1-(4-fluorophenyl)-20,22-dimethyl-16-[(4-methylpiperazin-1-yl)methyl]-7,8,15,16-tetrahydro-18,21-etheno-13,9-(metheno)-6,14,17-trioxa-2-thia-3,5-diazacyclononadeca[1,2,3-cd]indene-7-carboxylic Acid]	0.0018	0.00133	0.214	0.015
COCC(COC)Oc1ccc(-c2nccc(COc3ccc4cc3C[C@H](C(=O)O)Oc3ncnc5sc(-c6ccc(F)cc6)c(c35)-c3c(C)c(Cl)c(c(Cl)c3C)O[C@H](CN3CCN(C)CC3)CO4)n2)cc1 [Example 110, (7R,16R)-19,23-dichloro-10-[(2-{4-[(1,3-dimethoxypropan-2-yl)oxy]phenyl}pyrimidin-4-yl)methoxy]-1-(4-fluorophenyl)-20,22-dimethyl-16-[(4-methylpiperazin-1-yl)methyl]-7,8,15,16-tetrahydro-18,21-etheno-9,13-(metheno)-6,14,17-trioxa-2-thia-3,5-diazacyclononadeca[1,2,3-cd]indene-7-carboxylic Acid]	0.00103	0.000306	49.9	9.63
